Experimental data as given in patent US8841233B2, “Herbicidal compositions comprising 4-amino-3-chloro-5-fluoro-6-(4-chloro-2-fluoro-3-methoxyphenyl) pyridine-2-carboxylic acid or a derivative thereof and 4-hydroxyphenyl-pyruvate dioxygenase (HPPD) inhibitors” (Dow Agrosciences LLC, priority 2012, dated 2014).

System: SCPMA
Assay: In-water applied weed control, transplanted paddy rice, greenhouse (Example II)
Format: in vivo
Experimental: Evaluation of in-Water Applied Herbicidal Mixtures for Weed Control in Transplanted Paddy Rice
Weed seeds or nutlets of the desired test plant species were planted in puddled soil (mud) prepared by mixing a shredded, non-sterilized mineral soil (50.5 percent silt, 25.5 percent clay, and 24 percent sand, with a pH of about 7.6 and an organic matter content of about 2.9 percent) and water at a 1:1 volumetric ratio. The prepared mud was dispensed in 365 mL aliquots into 16-ounce (oz.) non-perforated plastic pots with a surface area of 86.59 square centimeters (cm^2) leaving a headspace of 3 centimeters (cm) in each pot. Mud was allowed to dry overnight prior to planting or transplanting. Rice seeds were planted in Sun Gro MetroMix® 306 planting mixture, which typically has a pH of 6.0 to 6.8 and an organic matter content of about 30 percent, in plastic plug trays. Seedlings at the second or third leaf stage of growth were transplanted into 840 mL of mud contained in 32-oz. non-perforated plastic pots with a surface area of 86.59 cm^2 4 days prior to herbicide application. The paddy was created by filling the headspace of the pots with 2.5 to 3 cm of water. When required to ensure good germination and healthy plants, a fungicide treatment and/or other chemical or physical treatment was applied. The plants were grown for 4-22 days in a greenhouse with an approximate 14 h photoperiod which was maintained at about 29′C during the day and 26° C. during the night. Nutrients were added as Osmocote® (19:6:12, N:P:K+ minor nutrients) at 2 g per 16-oz. pot and 4 g per 32-oz. pot. Water was added on a regular basis to maintain the paddy flood, and supplemental lighting was provided with overhead metal halide 1000-Watt lamps as necessary. The plants were employed for testing when they reached the first through fourth true leaf stage.
Treatments consisted of the acid or esters of 4-amino-3-chloro-5-fluoro-6-(4-chloro-2-fluoro-3-methoxy-phenyl)pyridine-2-carboxylic acid (compound A) each formulated as an SC (suspension concentrate) and various herbicidal components alone and in combination. Forms of compound A were applied on an acid equivalent basis.
Other herbicidal components were applied on an active ingredient basis and included 4-hydroxyphenyl pyruvate dioxygenase (HPPD)-inhibiting herbicides mesotrione formulated as Callisto®, sulcotrione formulated as Mikado®, pyrazolynate formulated as Sunbird® 10% GR, and benzobicyclon formulated as Benzobicyclon 3.5% or technical material.
Treatment requirements for each compound or herbicidal component were calculated based upon the rates being tested, the concentration of active ingredient or acid equivalent in the formulation, an application volume of 2 mL per component per pot, and an application area of 86.59 cm^2 per pot.
For formulated compounds, a measured amount was placed in an individual 100 or 200 mL glass vial and was dissolved in a volume of 1.25% (v/v) Agri-Dex® crop oil concentrate to obtain application solutions.
For technical grade compounds, a weighed amount was placed in an individual 100 to 200 mL glass vial and was dissolved in a volume of acetone to obtain concentrated stock solutions. […] The concentrated stock solutions obtained were diluted with an equivalent volume of an aqueous mixture containing 2.5% (v/v) crop oil concentrate so that the final application solutions contained 1.25% (v/v) crop oil concentrate.
Applications were made by injecting with a pipetter appropriate amounts of the application solutions, individually and sequentially, into the aqueous layer of the paddy. Control plants were treated in the same manner with the solvent blank. Applications were made so that all treated plant material received the same concentrations of acetone and crop oil concentrate.
The treated plants and control plants were placed in a greenhouse as described above and water was added as needed to maintain a paddy flood. […]

Measured: Visual Weed Control (%) - 21 DAA SCPMA Obs

COc1c(Cl)ccc(-c2nc(C(=O)O)c(Cl)c(N)c2F)c1F [Compound A Acid, 4-amino-3-chloro-6-(4-chloro-2-fluoro-3-methoxyphenyl)-5-fluoropyridine-2-carboxylic acid]
0%: 8.75 gae/ha | 17.5 gae/ha | 35 gae/ha

COc1c(Cl)ccc(-c2nc(C(=O)OCc3ccccc3)c(Cl)c(N)c2F)c1F [Compound A Benzyl Ester, benzyl ester of 4-amino-3-chloro-5-fluoro-6-(4-chloro-2-fluoro-3-methoxy-phenyl)pyridine-2-carboxylic acid]
0%: 4.38 gae/ha | 8 gae/ha | 8.75 gae/ha | 16 gae/ha | 17.5 gae/ha | 32 gae/ha | 48 gae/ha | 96 gae/ha
